Experimental data taken from patent US6838476B1, “Imidazoles with anti-inflammatory activity” (J. Uriach & Cia, SA, priority 1998, dated 2005).
Structures can show the parent of a compound that is named as a salt.

What was measured:
cyclooxygenase-1 (COX-1) = target: T1, cyclooxygenase-1 (COX-1) (Homo sapiens, UniProt P23219); assay: Inhibition of cyclooxygenase-1 (COX-1) activity in human blood (thromboxane B2 levels after ionophore A23187); type: cell-based; details: read-out: % inhibition COX-1 (10 μM), 10 μM test compound
T1 construct: from tissue; host or cells: heparinized human whole blood
T1 sequence (P23219 24-599): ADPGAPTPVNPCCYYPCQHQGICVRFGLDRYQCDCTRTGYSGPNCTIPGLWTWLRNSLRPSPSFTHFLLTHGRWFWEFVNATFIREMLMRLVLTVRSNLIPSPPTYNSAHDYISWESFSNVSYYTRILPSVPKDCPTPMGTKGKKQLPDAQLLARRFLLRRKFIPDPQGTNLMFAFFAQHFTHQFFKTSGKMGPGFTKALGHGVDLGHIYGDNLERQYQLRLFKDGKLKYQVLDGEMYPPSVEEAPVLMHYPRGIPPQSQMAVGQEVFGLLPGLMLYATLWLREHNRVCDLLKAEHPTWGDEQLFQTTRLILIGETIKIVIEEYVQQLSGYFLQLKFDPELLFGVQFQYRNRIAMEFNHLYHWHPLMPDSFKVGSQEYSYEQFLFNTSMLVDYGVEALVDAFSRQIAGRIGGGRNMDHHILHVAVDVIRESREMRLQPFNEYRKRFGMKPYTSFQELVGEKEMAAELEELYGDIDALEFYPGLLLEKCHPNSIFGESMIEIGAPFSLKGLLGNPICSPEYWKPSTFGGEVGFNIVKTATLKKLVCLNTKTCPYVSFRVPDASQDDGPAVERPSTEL
Method: (§1) Inhibition of cyclooxgenase-1 (COX-1) and cyclooxygenase-2 (COX-2) Activity in Human Blood
Heparinized human blood from healthy volunteers who had not taken non-steroidal anti-inflammatory drugs (NSAIDs) for a week, and neither alcohol nor xanthines 24 h before blood collection, is used. Blood is divided into two groups; one will be used to determine COX-1 activity and the other one for COX-2. The procedure to follow will be different in each case.
For COX-1, 12-mL tubes are used. 5 μL of the test compound (in DMSO solution; in duplicate) are placed in each tube. Aditionally two tubes for blanks and two tubes for controls containing 5 μL of DMSO are used. Next, 1 mL of blood is added to each tube and they are stirred. The tubes are placed in a thermostatized bath at 37° C. for 5 h. Then, 5 μL of 5 mM ionophore A23187 is added to each tube, except to the blanks, and tubes are incubated for 30 min more at 37° C. After this time, the tubes are placed in ice and 100 μL of a 100 mM EGTA solution is added to stop the reaction. 2.5 mL of methanol is added to each tube to reach a final concentration of 70%. The tubes are stirred and frozen at −70° C. till their use. The COX-1 activity is determined by measuring thromboxane B2 levels in the samples. Blood is defrozen and centrifuged at 2000 g for 10 min at 4° C. 1 mL of supematant is evaporated under nitrogen to dryness. The solid residue thus obtained is resuspended in 1 mL of saline and the thromboxane B2 levels in these samples are determined using a kit (Kit Thromboxane B2, Biotrak EIA system RPN220 Amershan), according to the manufacturer's instructions.

cyclooxygenase-2 (COX-2) = target: T2, cyclooxygenase-2 (COX-2) (Homo sapiens, UniProt P35354); assay: Inhibition of cyclooxygenase-2 (COX-2) activity in human blood (prostaglandin E2 levels after LPS, aspirin added); type: cell-based; details: for inhibition at 10 µM: read-out: % inhibition COX-2 (10 μM), 10 μM test compound; for inhibition at 1 µM: read-out: % inhibition COX-2 (1 μM), 1 μM test compound
T2 construct: 5 μL of LPS is also added (in order to induce COX-2 activy); from tissue; host or cells: heparinized human whole blood, LPS-stimulated, with aspirin added
T2 sequence (P35354 18-604): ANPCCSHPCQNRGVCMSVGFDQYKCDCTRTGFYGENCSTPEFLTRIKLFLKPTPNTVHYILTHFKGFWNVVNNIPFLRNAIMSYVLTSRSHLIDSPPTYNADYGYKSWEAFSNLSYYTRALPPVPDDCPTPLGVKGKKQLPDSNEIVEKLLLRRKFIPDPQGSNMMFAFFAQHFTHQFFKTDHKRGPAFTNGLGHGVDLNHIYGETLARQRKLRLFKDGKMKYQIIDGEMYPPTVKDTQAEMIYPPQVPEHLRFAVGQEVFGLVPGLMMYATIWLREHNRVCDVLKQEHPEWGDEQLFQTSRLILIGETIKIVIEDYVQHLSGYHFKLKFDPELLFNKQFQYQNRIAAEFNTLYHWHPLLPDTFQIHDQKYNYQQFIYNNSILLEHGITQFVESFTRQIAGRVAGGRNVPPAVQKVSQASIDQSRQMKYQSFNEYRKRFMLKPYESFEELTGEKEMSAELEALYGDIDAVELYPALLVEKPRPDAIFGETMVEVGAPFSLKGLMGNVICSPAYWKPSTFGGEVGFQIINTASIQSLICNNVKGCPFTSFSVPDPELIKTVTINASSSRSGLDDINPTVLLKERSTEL
Method: as §1
Blood is divided into two groups; one will be used to determine COX-1 activity and the other one for COX-2. The procedure to follow will be different in each case.
For COX-2, 3-mL tubes are prepared in duplicate containing 5 μL of the test compound (solution in DMSO) and 5 μL of vehicle in the case of blanks and controls. To each tube, 5 μL of a 2 mg/mL solution of aspirin in DMSO is also added (in order to inhibit COX-1 activity), and to all tubes except the blanks 5 μL of LPS is also added (in order to induce COX-2 activy). Finally, 1 mL of heparinized blood is added to each tube, and tubes are then stirred and placed in a thermostatized bath at 37° C. for 24 h. Then, tubes are centrifuged at 2000 g for 10 min at 4° C., the resulting plasma is collected and is frozen at −70° C. until use. COX-2 activity is determined by measuring prostaglandin E2 levels in the samples. The plasma stored at −70° C. is defrozen and prostaglandin E2 levels in these samples are determined using a kit (Kit Prostaglandin E2, Biotrak EIA system RPN222 Amershan), according to the manufacturer's instructions.

| melting point | also measured | SMILES |
| --- | --- | --- |
| – | inhibition at 10 µM (cyclooxygenase-1 (COX-1)): 42.5%; inhibition at 10 µM (cyclooxygenase-2 (COX-2)): 100% | CS(=O)(=O)c1ccc(-n2cnc(Cl)c2-c2ccc(Cl)nc2)cc1 [4(16), 4-Chloro-5-(6-chloro-3-pyridyl)-1-(4-methylsulfonylphenyl)imidazole] |
| 185 to 187 °C | – | COc1ccc(-c2cncn2-c2ccc(S(C)(=O)=O)cc2)cc1 [Example 1(5), 5-(4-Methoxyphenyl)-1-(4-methylsulfonylphenyl)imidazole] |
| 192 to 198 °C | – | COc1ccc(-c2cncn2-c2ccc(S(C)(=O)=O)cc2)c(Cl)n1 [Example 1(18), 5-(2-Chloro-6-methoxy-3-pyridyl)-1-(4-methylsulfonylphenyl)imidazole] |
| – | inhibition at 10 µM (cyclooxygenase-1 (COX-1)): 47.5%; inhibition at 1 µM (cyclooxygenase-2 (COX-2)): 75.1%; inhibition at 10 µM (cyclooxygenase-2 (COX-2)): 100% | Cc1ccc(-c2c(Cl)ncn2-c2ccc(S(C)(=O)=O)cc2)cc1F [4(8), 4-Chloro-5-(3-fluoro-4-methylphenyl)-1-(4-methylsulfonylphenyl)-imidazole] |
| 156 to 157 °C | – | CS(=O)(=O)c1ccc(-n2cnc(Cl)c2-c2ccc(Cl)c(Cl)c2)cc1 [4(4), 4-Chloro-5-(3,4-dichlorophenyl)-1(4-methylsulfonylphenyl)imidazole] |
| 188 to 189 °C | – | CS(=O)(=O)c1ccc(-n2cncc2-c2ccccc2F)cc1 [Example 1(9), 5-(2-Fluorophenyl)-1(4-methylsulfonylphenyl)imidazole] |
| 100 to 101 °C | – | CCOc1cc(OCC)cc(-c2cncn2-c2ccc(S(C)(=O)=O)cc2)c1 [Example 1(21), 5-(3,5-Diethoxyphenyl)-1-(4-methylsulfonylphenyl)imidazole] |
| 223 to 230 °C | – | CS(=O)(=O)c1ccc(-n2cnc(Cl)c2-c2cnc(Cl)c(Cl)c2)cc1 [4(19), 4-Chloro-5-(5,6-dichloro-3-pyridyl)-1-(4-methylsulfonylphenyl)imidazole] |
| – | inhibition at 10 µM (cyclooxygenase-1 (COX-1)): 72.1%; inhibition at 1 µM (cyclooxygenase-2 (COX-2)): 100%; inhibition at 10 µM (cyclooxygenase-2 (COX-2)): 100% | CCOc1ccc(-c2c(Cl)ncn2-c2ccc(S(C)(=O)=O)cc2)cc1 [4(22), 4-Chloro-5-(4-ethoxyphenyl)-1-(4-methylsulfonylphenyl)imidazole] |
| – | inhibition at 10 µM (cyclooxygenase-1 (COX-1)): 47.9%; inhibition at 1 µM (cyclooxygenase-2 (COX-2)): 82.6%; inhibition at 10 µM (cyclooxygenase-2 (COX-2)): 96% | CS(=O)(=O)c1ccc(-n2cnc(Cl)c2-c2ccccc2)cc1 [4(3), 4-Chloro-1-(4-methylsulfonylphenyl)-5-phenylimidazole] |
| – | inhibition at 10 µM (cyclooxygenase-1 (COX-1)): 37.8%; inhibition at 1 µM (cyclooxygenase-2 (COX-2)): 89%; inhibition at 10 µM (cyclooxygenase-2 (COX-2)): 100% | CS(=O)(=O)c1ccc(-n2cnc(Cl)c2-c2ccc(F)cc2)cc1 [Example 4, 4-Chloro-5-(4-fluorophenyl)-1-(4-methylsulfonylphenyl)imidazole] |
| 251 °C | – | NS(=O)(=O)c1ccc(-n2cnc(Cl)c2-c2ccc(Cl)c(Cl)c2)cc1 [13(2), 4-[4-Chloro-5-(3,4-dichlorophenyl)imidazol-1-yl]benzenesulfonamide] |
| 164 °C | – | CS(=O)(=O)c1ccc(-n2cncc2-c2ccccc2)cc1 [Example 1(3), 1-(4-Methylsulfonylphenyl)-5-phenylimidazole] |
| – | inhibition at 10 µM (cyclooxygenase-1 (COX-1)): 33.8%; inhibition at 1 µM (cyclooxygenase-2 (COX-2)): 85.2%; inhibition at 10 µM (cyclooxygenase-2 (COX-2)): 100% | CS(=O)(=O)c1ccc(-n2cnc(Br)c2-c2ccc(F)cc2)cc1 [Example 5, 4-Bromo-5-(4-fluorophenyl)-1-(4-methylsulfonylphenyl)imidazole] |
| 119 °C | – | CS(=O)(=O)c1ccc(-n2cncc2-c2ccc(F)cc2F)cc1 [Example 1(2), 5-(2,4-Difluorophenyl)-1-(4-methylsulfonylphenyl)imidazole] |
| 167 to 169 °C | – | CCCOc1ccc(-c2cncn2-c2ccc(S(C)(=O)=O)cc2)cc1 [Example 1(20), 1-(4-Methylsulfonylphenyl)-5-(4-propoxyphenyl)imidazole] |
| 178 °C | – | COCc1cccc(-c2c(Cl)ncn2-c2ccc(S(C)(=O)=O)cc2)c1 (as salt: HCl) [4(14), 4-Chloro-5-(3-methoxymethylphenyl)-1-(4-methylsulfonylphenyl)-imidazole] |
| 156 °C | – | Cc1ccc(-c2cncn2-c2ccc(S(C)(=O)=O)cc2)cc1 [Example 1(1), 5-(4-Methylphenyl)-1-(4-methylsulfonylphenyl)imidazole] |
| 238 to 241 °C | – | CC(=O)Nc1ccc(-c2[nH]c(-c3ccc(S(C)(=O)=O)cc3)nc2Cl)cc1 [Example 18, 5-(4-Acetylaminophenyl)-4-chloro-(4-methylsulfonylphenyl)imidazole] |
| 196 to 197 °C | – | NS(=O)(=O)c1ccc(-n2cncc2-c2ccc(F)cc2)cc1 [Example 14, 4-[5-(4-Fluorophenyl)imidazol-1-yl]benzenesulfonamide] |
| 141 to 142 °C | – | CS(=O)(=O)c1ccc(-n2cncc2-c2ccc(OC(F)(F)F)cc2)cc1 [Example 1(10), 1-(4-Methylsulfonylphenyl)-5-(4-trifluoromethoxyphenyl)imidazole] |
| 191 to 192 °C | – | CS(=O)(=O)c1ccc(-n2cncc2-c2ccc(Cl)nc2)cc1 [Example 1(16), 5-(6-Chloro-3-pyridyl)-1-(4-methylsulfonylphenyl)imidazole] |
| 192 to 193 °C | – | CS(=O)(=O)c1ccc(-n2cncc2-c2ccc(Cl)cc2)cc1 [Example 1(15), 5-(4-Chlorophenyl)-1-(4-methylsulfonylphenyl)imidazole] |
| 153 to 155 °C | – | CSc1ccc(-c2cncn2-c2ccc(S(C)(=O)=O)cc2)cc1 [Example 1(24), 5-(4-Methylsulfanylphenyl)-1-(4-methylsulfonylphenyl)imidazole] |
| 223 °C | – | CS(=O)(=O)c1ccc(-n2cnc(Cl)c2-c2ccc(Cl)nc2)cc1 (as salt: HCl) [4(16), 4-Chloro-5-(6-chloro-3-pyridyl)-1-(4-methylsulfonylphenyl)imidazole] |
| 174 to 175 °C | – | COc1cc(-c2cncn2-c2ccc(S(C)(=O)=O)cc2)ccc1C [Example 1(14), 5-(3-Methoxy-4-methylphenyl)-1(4-methylsulfonylphenyl)imidazole] |
| 192 to 198 °C | – | CS(=O)(=O)c1ccc(-n2cncc2-c2cnc(Cl)c(Cl)c2)cc1 [Example 1(19), 5-(5,6-Dichloro-3-pyridyl)-1-(4-methylsulfonylphenyl)imidazole] |
| 185 to 193 °C | – | CS(=O)(=O)c1ccc(-c2cnc(Cl)n2-c2ccccc2)cc1 [Example 11, 2-Chloro-5-(4-methylsulfonylphenyl)-1-phenylimidazole] |
| 181 to 182 °C | – | Cc1ccc(-c2c(Cl)ncn2-c2ccc(S(C)(=O)=O)cc2)cc1Cl (as salt: HCl) [4(13), 4-Chloro-5-(3-chloro-4-methylphenyl)-1-(4-methylsulfonylphenyl)-imidazole] |
| 147 °C | – | Cc1ccc(-c2cncn2-c2ccc(S(C)(=O)=O)cc2)cc1F [Example 1(8), 5-(3-Fluoro-4-methylphenyl)-1-(4-methylsulfonylphenyl)imidazole] |
